# pIC50: −log10 of the molar value.
# Experiments:
# [1] = system: A-431; assay: Concentration needed to inhibit 50% growth of the human A431 (epidermoid carcinoma) cell lines; assay type: functional, cell-based
# [2] = molecular target: Epidermal growth factor receptor and ErbB2 (HER1 and HER2) (Homo sapiens, UniProt P04626+P00533); assay: Concentration needed to inhibit the autophosphorylation of the cytoplasmic domain of Epidermal growth factor receptor using DELFIA/time-resolved fluorimetry.; assay type: protein assay
# [3] = system: SK-BR-3; assay: Concentration needed to inhibit 50% growth of human SKBr3 (breast carcinoma) cell lines; assay type: functional, cell-based
# [4] = system: SW-620; assay: Concentration needed to inhibit 50% growth of human SW620 (colon carcinoma) cell lines; assay type: functional, cell-based
pIC50 [1],IC50 [2],pIC50 [3],pIC50 [4],Structure (SMILES)
6.96,0.42 µM,7.05,6.80,CCOc1cc2ncc(C#N)c(Nc3cccc(Br)c3)c2cc1OCC
4.58,88.29 µM,4.56,4.19,COc1cc2c(C#N)cnc(Nc3cccc(Cl)c3)c2cc1OC
5.71,3.37 µM,5.53,5.28,COc1cc2ncc(C=O)c(Nc3cccc(Br)c3)c2cc1OC
6.03,1.48 µM,6.03,4.60,COc1cc2ncc(C#N)c(Nc3ccc(C)c(Cl)c3)c2cc1OC
6.23,0.18 µM,5.75,5.15,COc1cc2ncc(C#N)c(Nc3cccc(Cl)c3)c2cc1OC
4.68,4.18 µM,6.10,4.77,COc1cc2ncc(C#N)c(Nc3ccccc3Br)c2cc1OC
5.36,62.32 µM,5.17,5.42,COc1cc2ncc(C#N)c(Nc3cccc(C(C)C)c3)c2cc1OC
5.18,0.82 µM,5.61,4.84,COc1cc2ncc(C#N)c(Nc3cccc(N)c3)c2cc1OC
6.14,0.62 µM,5.86,5.51,COc1cc2ncc(C#N)c(Nc3ccc(Br)c(C)c3)c2cc1OC
6.24,21.19 µM,6.19,5.37,CCOc1cc2c(Nc3cccc(Br)c3)c(C#N)cnc2cc1OC
5.82,6.36 µM,6.02,5.11,COc1cc2ncc(C#N)c(Nc3cccc(O)c3)c2cc1OC
5.52,9.04 µM,5.89,5.56,COc1cc2ncc(C#N)c(Nc3ccc(O)c(Cl)c3)c2cc1OC
5.45,14.18 µM,4.59,4.36,COc1cc2ncc(C#N)c(Nc3cccc(C#N)c3)c2cc1OC
6.11,–,6.32,5.43,COc1cc2ncc(C#N)c(Nc3cccc(Br)c3)c2cc1OC
4.84,6.75 µM,4.85,5.01,COCOc1cc2ncc(C#N)c(Nc3cccc(Br)c3)c2cc1OCOC
6.12,1.79 µM,6.26,5.54,COc1cc2ncc(C#N)c(Nc3ccc(C)c(Br)c3)c2cc1OC

pIC50 [1],IC50 [2],pIC50 [3],pIC50 [4],Structure (SMILES)
6.38,> 104.7 µM,6.57,6.37,N#Cc1cnc2cc3c(cc2c1Nc1cccc(Br)c1)OCCO3
6.85,33.02 µM,7.22,7.22,CCOc1cc2ncc(C#N)c(Nc3cccc(Br)c3)c2cc1OC
6.09,13.85 µM,6.27,5.27,COc1cc2ncc(C#N)c(Nc3ccc(Cl)cc3F)c2cc1OC
5.44,0.84 µM,6.41,4.93,COc1cc2ncc(C#N)c(Nc3cccc(Br)c3C)c2cc1OC
5.84,0.76 µM,5.81,5.30,COc1cc2ncc(C#N)c(Nc3cccc(SC)c3)c2cc1OC.Cl
6.05,> 91.2 µM,5.77,4.72,COc1cc2ncc(C#N)c(Nc3ccc(Br)cc3F)c2cc1OC.Cl
5.23,7.69 µM,5.07,5.20,COc1cc2ncc(C#N)c(Nc3cccc(C(N)=O)c3)c2cc1OC
6.57,0.98 µM,6.31,6.31,CCOc1cc2ncc(C#N)c(Nc3ccc(F)c(Cl)c3)c2cc1OCC
5.58,69.4 µM,5.81,5.56,COc1cc2ncc(C#N)c(Nc3cccc(NC(C)=O)c3)c2cc1OC
5.68,5.15 µM,5.29,5.54,N#Cc1cnc2cc3c(cc2c1Nc1cccc(Br)c1)OCCCO3
5.50,3.15 µM,5.70,5.46,COc1cc2ncc(C#N)c(Nc3cc(Cl)c(O)c(Cl)c3)c2cc1OC
5.84,47.94 µM,6.13,5.54,COc1cc2ncc(C#N)c(Nc3ccc(F)cc3)c2cc1OC
5.10,> 102.2 µM,4.81,4.64,COc1cc2ncc(CO)c(Nc3cccc(Br)c3)c2cc1OC
5.52,> 81.3 µM,5.21,5.16,CCOC(=O)c1cnc2cc(OC)c(OC)cc2c1Nc1cccc(Br)c1
4.74,34.22 µM,4.45,4.27,COc1cc2ncc(C(=O)O)c(Nc3cccc(Br)c3)c2cc1OC

# Reference: ChEMBL document CHEMBL1133627, “4-Anilino-6,7-dialkoxyquinoline-3-carbonitrile inhibitors of epidermal growth factor receptor kinase and their bioisosteric relationship to the 4-anilino-6,7-dialkoxyquinazoline inhibitors” (J Med Chem, 2000)
